Measurements from patent publication US9145391B2, “Bipyridylaminopyridines as Syk inhibitors” (Merck Sharp & Dohme Corp., priority 2011, dated 2015).

biological target: recombinant human GST-Syk (Homo sapiens (Human), UniProt P43405); test: Homogeneous Time-Resolved Fluorescence (HTRF) assay for the recombinant human Syk enzyme; format: biochemical; settings: recombinant human GST-Syk 5 pM, ATP 25 μM, read-out: rhSyk IC50
Outline: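 Recombinant GST-hSyk fusion protein kinase activity was read by HTRF. Reactions were started with biotinylated substrate peptide at 250 nM final, Mg 5 mM final and ATP 25 μM final. Potency derived from inhibition of substrate phosphorylation.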

Compound | IC50
COc1c(C(=O)N2CCC(Nc3ccc(-c4cc(C)cc(Nc5cc(C(F)(F)F)ccn5)n4)cn3)CC2)ccc2ccccc12 [Example 4-64] | 83 nM
Cc1cc(Nc2cc(C(F)(F)F)ccn2)nc(-c2ccc(NC3CCN(C(=O)c4ccnc5ccccc45)CC3)nc2)c1 [Example 4-66] | 24 nM
Cc1cc(Nc2cc(C(F)(F)F)ccn2)nc(-c2ccc(NC3CCN(C(=O)c4cccc5c4oc4ccccc45)CC3)nc2)c1 [Example 4-67] | 178 nM
Cc1cc(Nc2cc(C(F)(F)F)ccn2)nc(-c2ccc(NC3CCN(C(=O)c4ccc(C(F)(F)F)cc4)CC3)nc2)c1 [Example 4-72] | 56 nM
Cc1cc(Nc2cc(C(F)(F)F)ccn2)nc(-c2ccc(NC3CCN(C(=O)c4ccc5nc(C)sc5c4)CC3)nc2)c1 [Example 4-78] | 4 nM
CC(=O)Nc1ccc(C(=O)N2CCC(Nc3ccc(-c4cc(C)cc(Nc5cc(C(F)(F)F)ccn5)n4)cn3)CC2)cc1 [Example 4-79] | 4 nM
Cc1cc(Nc2cc(C(F)(F)F)ccn2)nc(-c2ccc(NC3CCN(C(=O)c4ccc(-c5ccccc5)cc4)CC3)nc2)c1 [Example 4-81] | 44 nM
Cc1cc(Nc2cc(C(F)(F)F)ccn2)nc(-c2ccc(NC3CCN(C(=O)c4n[nH]c5ccccc45)CC3)nc2)c1 [Example 4-86] | 7 nM
Cc1cc(Nc2cc(C(F)(F)F)ccn2)nc(-c2ccc(NC3CCN(C(=O)CCCN4CCCC4=O)CC3)nc2)c1 [Example 4-89] | 1 nM
Cc1cc(Nc2cc(C(F)(F)F)ccn2)nc(-c2ccc(NC3CCN(C(=O)c4ccc(C#N)cc4)CC3)nc2)c1 [Example 4-90] | 4 nM
Cc1cc(Nc2cc(C(F)(F)F)ccn2)nc(-c2ccc(NC3CCN(C(=O)c4cnc5ccccc5c4)CC3)nc2)c1 [Example 4-92] | 4 nM
COc1ccc(C(=O)N2CCC(Nc3ccc(-c4cc(C)cc(Nc5cc(C(F)(F)F)ccn5)n4)cn3)CC2)cc1 [Example 4-93] | 5 nM
Cc1cc(Nc2cc(C(F)(F)F)ccn2)nc(-c2ccc(NC3CCN(C(=O)c4ccc5nc(C)c(C)nc5c4)CC3)nc2)c1 [Example 4-97] | 2 nM
Cc1cc(Nc2cc(C(F)(F)F)ccn2)nc(-c2ccc(NC3CCN(C(=O)c4ccc5[nH]ncc5c4)CC3)nc2)c1 [Example 4-98] | 5 nM
Cc1cc(Nc2cc(C(F)(F)F)ccn2)nc(-c2ccc(NC3CCN(C(=O)c4cn(C)c5ccccc45)CC3)nc2)c1 [Example 4-99] | 11 nM
Cc1cc(Nc2cc(C(F)(F)F)ccn2)nc(-c2ccc(NC3CCN(C(=O)c4ccc5[nH]c(C)c(C)c5c4)CC3)nc2)c1 [Example 4-103] | 11 nM
Cc1cc(Nc2cc(C(F)(F)F)ccn2)nc(-c2ccc(NC3CCN(C(=O)c4cc5ccccc5n4C)CC3)nc2)c1 [Example 4-113] | 26 nM
Cc1cc(Nc2cc(C(F)(F)F)ccn2)nc(-c2ccc(NC3CCN(C(=O)c4ccc(Oc5ccccc5)cc4)CC3)nc2)c1 [Example 4-114] | 23 nM
Cc1cc(Nc2cc(C(F)(F)F)ccn2)nc(-c2ccc(NC3CCN(C(=O)c4ccc(F)c(O)c4)CC3)nc2)c1 [Example 4-115] | 4 nM
Cc1cc(Nc2cc(C(F)(F)F)ccn2)nc(-c2ccc(NC3CCN(C(=O)c4cccc5c4-c4ccccc4C5)CC3)nc2)c1 [Example 4-117] | 141 nM
Cc1cc(Nc2cc(C(F)(F)F)ccn2)nc(-c2ccc(NC3CCN(C(=O)c4cc5ccccc5n4-c4ccccc4)CC3)nc2)c1 [Example 4-118] | 176 nM
Cc1cc(Nc2cc(C(F)(F)F)ccn2)nc(-c2ccc(NC3CCN(C(=O)c4cccc5c6c([nH]c45)CCCC6)CC3)nc2)c1 [Example 4-119] | 19 nM
Cc1cc(Nc2cc(C(F)(F)F)ccn2)nc(-c2ccc(NC3CCN(C(=O)CCc4nc5ccccc5s4)CC3)nc2)c1 [Example 4-121] | 5 nM
Cc1cc(Nc2cc(C(F)(F)F)ccn2)nc(-c2ccc(NC3CCN(C(=O)c4cccc(-c5ccccc5)c4)CC3)nc2)c1 [Example 4-122] | 3 nM
Cc1cc(Nc2cc(C(F)(F)F)ccn2)nc(-c2ccc(N3CC[C@H](N)C3)nc2)c1 [Example 5, 6′-[(3S)-3-aminopyrrolidin-1-yl]-4-methyl-N-[4-(trifluoromethyl)pyridin-2-yl]-2,3′-bipyridin-6-amine] | 1 nM
Cc1cc(Nc2cc(C(F)(F)F)ccn2)nc(-c2ccc(N3CCCC(N)C3)nc2)c1 (stereo not drawn) [Example 5-1] | 2 nM
Cc1cc(Nc2cc(C(F)(F)F)ccn2)nc(-c2ccc(NC3CCNCC3)nc2)c1 [Example 5-2] | 6 nM

The next lines start with the values.

IC50 | Compound
7 nM | Cc1cc(Nc2cc(C(F)(F)F)ccn2)nc(-c2ccc(NC3CCN(C(=O)c4cnc5ccccn45)CC3)nc2)c1 [Example 4-63]
20 nM | Cc1cc(Nc2cc(C(F)(F)F)ccn2)nc(-c2ccc(NC3CCN(C(=O)c4nccc5ccccc45)CC3)nc2)c1 [Example 4-65]
2 nM | Cc1cc(Nc2cc(C(F)(F)F)ccn2)nc(-c2ccc(NC3CCN(C(=O)Cc4ccccn4)CC3)nc2)c1 [Example 4-68]
138 nM | Cc1cc(Nc2cc(C(F)(F)F)ccn2)nc(-c2ccc(NC3CCN(C(=O)Cc4ccc(-c5ccccc5)cc4)CC3)nc2)c1 [Example 4-69]
6 nM | Cc1cc(Nc2cc(C(F)(F)F)ccn2)nc(-c2ccc(NC3CCN(C(=O)Cc4ccccc4C#N)CC3)nc2)c1 [Example 4-70]
21 nM | Cc1cc(Nc2cc(C(F)(F)F)ccn2)nc(-c2ccc(NC3CCN(C(=O)c4ccccc4Cl)CC3)nc2)c1 [Example 4-71]
21 nM | Cc1cc(Nc2cc(C(F)(F)F)ccn2)nc(-c2ccc(NC3CCN(C(=O)Cc4ccc(Cl)cc4)CC3)nc2)c1 [Example 4-73]
57 nM | Cc1cc(Nc2cc(C(F)(F)F)ccn2)nc(-c2ccc(NC3CCN(C(=O)Cc4cccc(Oc5ccccc5)c4)CC3)nc2)c1 [Example 4-74]
39 nM | Cc1cc(Nc2cc(C(F)(F)F)ccn2)nc(-c2ccc(NC3CCN(C(=O)Cc4ccccc4C(F)(F)F)CC3)nc2)c1 [Example 4-75]
10 nM | Cc1cc(Nc2cc(C(F)(F)F)ccn2)nc(-c2ccc(NC3CCN(C(=O)CCOc4ccccc4)CC3)nc2)c1 [Example 4-76]
1 nM | Cc1cc(Nc2cc(C(F)(F)F)ccn2)nc(-c2ccc(NC3CCN(C(=O)Cc4cccnc4)CC3)nc2)c1 [Example 4-77]
28 nM | Cc1cc(Nc2cc(C(F)(F)F)ccn2)nc(-c2ccc(NC3CCN(C(=O)COc4ccccc4)CC3)nc2)c1 [Example 4-80]
3 nM | Cc1cc(Nc2cc(C(F)(F)F)ccn2)nc(-c2ccc(NC3CCN(C(=O)Cc4cccc(C#N)c4)CC3)nc2)c1 [Example 4-82]
3 nM | Cc1cc(Nc2cc(C(F)(F)F)ccn2)nc(-c2ccc(NC3CCN(C(=O)Cc4cccc(O)c4)CC3)nc2)c1 [Example 4-83]
4 nM | Cc1cc(Nc2cc(C(F)(F)F)ccn2)nc(-c2ccc(NC3CCN(C(=O)c4ccncc4)CC3)nc2)c1 [Example 4-84]
7 nM | Cc1cc(Nc2cc(C(F)(F)F)ccn2)nc(-c2ccc(NC3CCN(C(=O)c4cccc(C#N)c4)CC3)nc2)c1 [Example 4-85]
6 nM | COc1ccccc1C(=O)N1CCC(Nc2ccc(-c3cc(C)cc(Nc4cc(C(F)(F)F)ccn4)n3)cn2)CC1 [Example 4-87]
11 nM | Cc1cc(Nc2cc(C(F)(F)F)ccn2)nc(-c2ccc(NC3CCN(C(=O)Cc4c(C)[nH]c5ccccc45)CC3)nc2)c1 [Example 4-88]

IC50 | Compound
4 nM | Cc1cc(Nc2cc(C(F)(F)F)ccn2)nc(-c2ccc(NC3CCN(C(=O)Cc4ccc(C#N)cc4)CC3)nc2)c1 [Example 4-91]
2 nM | Cc1cc(Nc2cc(C(F)(F)F)ccn2)nc(-c2ccc(NC3CCN(C(=O)c4cccnc4)CC3)nc2)c1 [Example 4-94]
12 nM | Cc1cc(Nc2cc(C(F)(F)F)ccn2)nc(-c2ccc(NC3CCN(C(=O)Cc4ccccc4Cl)CC3)nc2)c1 [Example 4-95]
103 nM | Cc1cc(Nc2cc(C(F)(F)F)ccn2)nc(-c2ccc(NC3CCN(C(=O)Cc4cccc(C(F)(F)F)c4)CC3)nc2)c1 [Example 4-96]
9 nM | Cc1cc(Nc2cc(C(F)(F)F)ccn2)nc(-c2ccc(NC3CCN(C(=O)Cc4ccc(O)c(Cl)c4)CC3)nc2)c1 [Example 4-100]
8 nM | Cc1cc(Nc2cc(C(F)(F)F)ccn2)nc(-c2ccc(NC3CCN(C(=O)c4cccc(O)c4)CC3)nc2)c1 [Example 4-101]
7 nM | Cc1cc(Nc2cc(C(F)(F)F)ccn2)nc(-c2ccc(NC3CCN(C(=O)Cc4cn(C)c5ccccc45)CC3)nc2)c1 [Example 4-102]
2 nM | Cc1cc(Nc2cc(C(F)(F)F)ccn2)nc(-c2ccc(NC3CCN(C(=O)c4ccccn4)CC3)nc2)c1 [Example 4-104]
245 nM | Cc1cc(Nc2cc(C(F)(F)F)ccn2)nc(-c2ccc(NC3CCN(C(=O)c4cccc(Cl)c4)CC3)nc2)c1 [Example 4-105]
6 nM | Cc1cc(Nc2cc(C(F)(F)F)ccn2)nc(-c2ccc(NC3CCN(C(=O)c4ccc(O)cc4)CC3)nc2)c1 [Example 4-106]
13 nM | Cc1cc(Nc2cc(C(F)(F)F)ccn2)nc(-c2ccc(NC3CCN(C(=O)Cc4cccc(Cl)c4)CC3)nc2)c1 [Example 4-107]
3 nM | Cc1cc(Nc2cc(C(F)(F)F)ccn2)nc(-c2ccc(NC3CCN(C(=O)Cc4ccc(O)cc4)CC3)nc2)c1 [Example 4-108]
6 nM | COc1cccc(C(=O)N2CCC(Nc3ccc(-c4cc(C)cc(Nc5cc(C(F)(F)F)ccn5)n4)cn3)CC2)c1 [Example 4-109]
6 nM | COc1cccc(CC(=O)N2CCC(Nc3ccc(-c4cc(C)cc(Nc5cc(C(F)(F)F)ccn5)n4)cn3)CC2)c1 [Example 4-110]
3 nM | Cc1cc(Nc2cc(C(F)(F)F)ccn2)nc(-c2ccc(NC3CCN(C(=O)c4ccc5ncccc5c4)CC3)nc2)c1 [Example 4-111]
6 nM | Cc1cc(Nc2cc(C(F)(F)F)ccn2)nc(-c2ccc(NC3CCN(C(=O)c4ccccc4C#N)CC3)nc2)c1 [Example 4-112]
4 nM | Cc1cc(Nc2cc(C(F)(F)F)ccn2)nc(-c2ccc(NC3CCN(C(=O)Cc4ccc(O)c(F)c4)CC3)nc2)c1 [Example 4-116]
9 nM | Cc1cc(Nc2cc(C(F)(F)F)ccn2)nc(-c2ccc(NC3CCN(C(=O)c4cccc5[nH]ncc45)CC3)nc2)c1 [Example 4-120]
